Holding throughout (assay type): functional
Assay [1] deals with Streptococcus pneumoniae. The experiment in a line: Antibacterial activity against Streptococcus pneumoniae assessed as resistant isolates by microdilution method. On the technique in general: Broth dilution looks for growth in wells or tubes with falling amounts of substance.
For assay [2], the system named is Streptococcus pneumoniae. The experiment in a line: Antibacterial activity against Streptococcus pneumoniae assessed as susceptible isolates by microdilution method.
Assay [3] concerns Streptococcus pneumoniae. The experiment in a line: Antibacterial activity against Streptococcus pneumoniae by microdilution method.
Assay [4] has as its system Streptococcus pneumoniae. Put plainly: Antibacterial activity against cotrimoxazole resistant Streptococcus pneumoniae by microdilution method.
Assay [5] concerns Streptococcus pneumoniae. The experiment in a line: Antibacterial activity against multidrug resistant Streptococcus pneumoniae by microdilution method.
Assay [6] concerns Streptococcus pneumoniae. The experiment in a line: Antibacterial activity against amoxicillin-clavulanic acid susceptible Streptococcus pneumoniae by microdilution method.
For assay [7], the system named is Streptococcus pneumoniae. The experiment in a line: Antibacterial activity against azithromycin resistant Streptococcus pneumoniae by microdilution method.
Assay [8] deals with Streptococcus pneumoniae. Put plainly: Antibacterial activity against penicillin susceptible Streptococcus pneumoniae by microdilution method.
Assay [9] deals with Streptococcus pneumoniae. The experiment in a line: Antibacterial activity against penicillin resistant Streptococcus pneumoniae by microdilution method.
Assay [10] has as its system Streptococcus pneumoniae. Put plainly: Antibacterial activity against azithromycin susceptible Streptococcus pneumoniae by microdilution method.
Assay [11] deals with Streptococcus pneumoniae. Put plainly: Antibacterial activity against penicillin intermediate Streptococcus pneumoniae by microdilution method.
Assay [12] relates to Streptococcus pneumoniae. Put plainly: Antibacterial activity against cotrimoxazole intermediate Streptococcus pneumoniae by microdilution method.
Assay [13] has as its system Streptococcus pneumoniae. Put plainly: Antibacterial activity against amoxicillin-clavulanic acid resistant Streptococcus pneumoniae by microdilution method.
Assay [14] relates to Streptococcus pneumoniae. The experiment in a line: Antibacterial activity against cotrimoxazole susceptible Streptococcus pneumoniae by microdilution method.
Assay [15] concerns Streptococcus pneumoniae. Put plainly: Antibacterial activity against Streptococcus pneumoniae ATCC 49619 by microdilution method.
The test system of assay [16] is Streptococcus pneumoniae. Put plainly: Antibacterial activity against Streptococcus pneumoniae by microdilution method in presence of beta lactamase inhibitor clavulanic acid.
The test system of assay [17] is Streptococcus pneumoniae. The experiment in a line: Antibacterial activity against Streptococcus pneumoniae assessed as susceptible isolates by microdilution method in presence of beta lactamase inhibitor clavulanic acid.
The test system of assay [18] is Streptococcus pneumoniae. The experiment in a line: Antibacterial activity against Streptococcus pneumoniae assessed as resistant isolates by microdilution method in presence of beta lactamase inhibitor clavulanic acid.

Data on seven molecules can be found in ChEMBL document CHEMBL1255272, “In vitro activity of AR-709 against Streptococcus pneumoniae” (2008).

One may read the MIC50 as the lowest concentration that inhibits either 50% of growth or 50% of the strains tested, depending on the study. As usually defined, the MIC90 is an inhibitory concentration at the 90% level, which refers to growth in some studies and to a panel of isolates in others. The term MIC denotes the lowest concentration that inhibits growth of the organism. A higher MIC goes with weaker potency.

≈ marks a conversion by molar mass, not a printed value.

In the case of `COc1c(N2CCNC(C)C2)c(F)cc2c(=O)c(C(=O)O)cn(C3CC3)c12` (stereo not given) [GATIFLOXACIN], the Activity with Streptococcus pneumoniae [1] stood at 0.7%. In the assay on Streptococcus pneumoniae [2], the Activity came out at 98.7%. In the assay on Streptococcus pneumoniae [3], this molecule returned an MIC50 of 0.25 µg/mL (≈ 0.666 µM) and an MIC90 of 0.25 µg/mL (≈ 0.666 µM).
As for `CC1(C)S[C@@H]2[C@H](NC(=O)Cc3ccccc3)C(=O)N2[C@H]1C(=O)O` [PENICILLIN G], the Activity worked out at 38.4% in the assay with Streptococcus pneumoniae [1] and 41.7% in the assay on Streptococcus pneumoniae [2]. For the same molecule, in the assay with Streptococcus pneumoniae [3], the MIC50 is 0.25 µg/mL (≈ 0.748 µM). The molecule further returned an MIC90 with Streptococcus pneumoniae [3] of 2 µg/mL (≈ 5.98 µM).
In the case of `COc1cc(Cc2cnc(N)nc2N)c2cc(Cc3c(C(=O)N(C)C)[nH]c4ccc(Cl)cc34)oc2c1OC`, the MIC50 was 0.12 µg/mL (≈ 0.224 µM) in the assay with Streptococcus pneumoniae [4]; 0.12 µg/mL (≈ 0.224 µM) with Streptococcus pneumoniae [5]; at most 0.015 µg/mL with Streptococcus pneumoniae [6]; 0.06 µg/mL (≈ 0.112 µM) against Streptococcus pneumoniae [7]; at most 0.015 µg/mL in the assay with Streptococcus pneumoniae [8]; 0.06 µg/mL (≈ 0.112 µM) with Streptococcus pneumoniae [9]. Also, the MIC50 was at most 0.015 µg/mL with Streptococcus pneumoniae [10]; 0.03 µg/mL (≈ 0.0561 µM) against Streptococcus pneumoniae [11]; at most 0.015 µg/mL in the assay on Streptococcus pneumoniae [12]; 0.06 µg/mL in the assay on Streptococcus pneumoniae [13]; at most 0.015 µg/mL in the assay on Streptococcus pneumoniae [14]; 0.03 µg/mL (≈ 0.0561 µM) in the assay with Streptococcus pneumoniae [3]. For the same molecule, the MIC90 was 0.25 µg/mL (≈ 0.467 µM) against Streptococcus pneumoniae [4]; 0.25 µg/mL (≈ 0.467 µM) against Streptococcus pneumoniae [5]; 0.06 µg/mL in the assay with Streptococcus pneumoniae [6]; 0.25 µg/mL (≈ 0.467 µM) with Streptococcus pneumoniae [7]; at most 0.015 µg/mL against Streptococcus pneumoniae [8]; 0.25 µg/mL (≈ 0.467 µM) in the assay with Streptococcus pneumoniae [9]. In addition, the MIC90 against Streptococcus pneumoniae [10] came out at 0.12 µg/mL (≈ 0.224 µM); in the assay with Streptococcus pneumoniae [11] it was 0.12 µg/mL (≈ 0.224 µM); with Streptococcus pneumoniae [12] it was 0.06 µg/mL (≈ 0.112 µM); in the assay on Streptococcus pneumoniae [13] it was 0.25 µg/mL; with Streptococcus pneumoniae [14] it was 0.03 µg/mL (≈ 0.0561 µM); in the assay with Streptococcus pneumoniae [3], 0.25 µg/mL (≈ 0.467 µM). Besides, the MIC against Streptococcus pneumoniae [15] is at most 0.015 µg/mL.
As to `CC1(C)S[C@@H]2[C@H](NC(=O)[C@H](N)c3ccc(O)cc3)C(=O)N2[C@H]1C(=O)O` [AMOXICILLIN], the Activity in the assay on Streptococcus pneumoniae [1] stood at 39.7%; in the assay on Streptococcus pneumoniae [17], 55%; in the assay on Streptococcus pneumoniae [18], 39.1%; with Streptococcus pneumoniae [2], 55%. For the same molecule, the MIC50 in the assay on Streptococcus pneumoniae [16] stood at 0.25 µg/mL; against Streptococcus pneumoniae [3], 0.25 µg/mL (≈ 0.684 µM). For the same molecule, the MIC90 in the assay on Streptococcus pneumoniae [16] is 4 µg/mL; with Streptococcus pneumoniae [3] it was 4 µg/mL (≈ 10.9 µM).
On to `COc1cc(Cc2cnc(N)nc2N)cc(OC)c1OC` [TRIMETHOPRIM], for which, in the assay with Streptococcus pneumoniae [3], the MIC50 was 4 µg/mL (≈ 13.8 µM) and the MIC90 was over 32 µg/mL.
With `CC[C@H]1OC(=O)[C@H](C)C(=O)[C@H](C)[C@@H](O[C@@H]2O[C@H](C)C[C@H](N(C)C)[C@H]2O)[C@](C)(OC)C[C@@H](C)C(=O)[C@H](C)[C@H]2N(CCCCn3cnc(-c4cccnc4)c3)C(=O)O[C@]12C` [TELITHROMYCIN], the Activity with Streptococcus pneumoniae [1] was 0.7%; in the assay with Streptococcus pneumoniae [2], 98%. Further, the MIC90 in the assay with Streptococcus pneumoniae [3] turned out to be 0.5 µg/mL (≈ 0.616 µM).
Consider `CC[C@H]1OC(=O)[C@H](C)[C@@H](O[C@H]2C[C@@](C)(OC)[C@@H](O)[C@H](C)O2)[C@H](C)[C@@H](O[C@@H]2O[C@H](C)C[C@H](N(C)C)[C@H]2O)[C@](C)(O)C[C@@H](C)CN(C)[C@H](C)[C@@H](O)[C@]1(C)O` [AZITHROMYCIN], for which the Activity in the assay with Streptococcus pneumoniae [1] is on record as 37.7%. Further, in the assay with Streptococcus pneumoniae [2], the Activity is reported as 62.3%. In the assay with Streptococcus pneumoniae [3], this molecule gave an MIC50 of 0.12 µg/mL (≈ 0.16 µM) and an MIC90 of over 8 µg/mL.
